# Assay results from patent publication US20240122930A1, “INTEGRIN INHIBITORS AND USES THEREOF IN COMBINATION WITH OTHER AGENTS” (Pliant Therapeutics, Inc., priority 2022, published 2024).
# Entries after “also recorded” stand apart in the source; their conditions may differ.
# Assays:
# lung Col1a1 expression = test: Precision cut lung slices, chronic bleomycin exposure, Col1a1 expression; format: cell-based, mice (C57BL/6); conditions: chronic bleomycin PCLS, 7 days culture
# Description: Mice (C57BL/6) were administered 3 U/kg of bleomycin (Teva Pharmaceuticals; North Wales, PA) on Day 0 and 1 U/kg of bleomycin on days 14, 28, 42 and 56 via oropharyngeal aspiration while under anesthesia. At day 70, 14 days after the final bleomycin insult, precision cut lung slices were obtained. […] The lobes were then subjected to precision slicing to obtain samples for culture using a microtome (Compresstome VF-300-OZ, Precisionary; Greenville, NC). Individual slices were distributed in a multiwell culture plate and cultured for 7 days under control (DMSO) and test compound conditions. The viability of the slices over the course of culturing was confirmed by WST-1 assay of mitochondrial activity. […] Compound 5; and the small molecule ALK5 inhibitor. […] Compound 5 was run at approximate IC50 for inhibition of TGF-beta activation by αVβ6.
# [1] = system: PRO-C6, Type VI collagen synthesis neoepitope; test: Phase 2a clinical trial: serum biomarker PRO-C6; format: in vivo, human; conditions: IPF participants, 40 to 320 mg, 4 and 12 weeks
# Description: Blank columns represent 40 mg Compound 5 dosage. Grid pattern filled columns represent 80 mg Compound 5 dosage. Diagonal line filled columns represent 160 mg Compound 5 dosage. Dot filled columns represent all participants dosed with Compound 5. […] In FIG. 21, LS refers to Least Squares and SEM refers to Standard Error of Mean.
# PRO-C3 and PRO-C6, serum biomarkers of type III and VI collagen synthesis, respectively, were previously shown to be elevated in patients with IPF and associated with progressive disease, according to Respir Res. 2019 Jul. 12; 20(1):148. Doi: 10.1186/s12931-019-1118-7, which is herein incorporated by reference in its entirety. Change from baseline was analyzed using a mixed model for repeated measures with terms for treatment group, visit, baseline value, and treatment-by-visit interaction. LS refers to Least Squares; SE refers to Standard Error.
# [2] = system: patients with idiopathic pulmonary fibrosis (IPF); test: Phase 2a randomized, double-blind, placebo-controlled trial in IPF; format: in vivo, human
# Excerpt: The exploratory endpoints of the trial measured changes in forced vital capacity (FVC), HRCT-based Quantitative Lung Fibrosis score (QLF), and selected biomarkers over 3 months of treatment.
# [3] = system: participants with idiopathic pulmonary fibrosis (IPF); test: Phase 2a clinical trial ([…]-IPF): Forced Vital Capacity (FVC) spirometry; format: in vivo, human; conditions: for Proportion of Participants with FVCpp Decline ≥10%, ITT, FIG. 20: placebo (N=23) 17.4%; for LS Mean (SE) change from Baseline in FVC at Week 12, ITT, Not on SoC subgroup, FIG. 30: placebo (n=7) −28.2; for Proportion of participants with Absolute FVCpp decline ≥10%, ITT, FIG. 31 / Proportion of participants with Relative FVCpp decline ≥10%, ITT, FIG. 29: placebo (n=31) 12.9%; for LS Mean (SE) change from Baseline in FVC at Week 12, mITT, FIG. 27: placebo (n=31) −64.2
# COL1A1 expression = test: Precision cut lung slices from human IPF explants, COL1A1 expression; format: cell-based
# Excerpt: Explanted lung tissue was obtained from human IPF subjects and inflated with agarose as described in the preceding examples. Biopsy cores were obtained from the agarose-inflated lung tissue. The biopsy cores were subjected to precision slicing to obtain several hundred μm thick. Individual slices were distributed in a multiwell culture plate and cultured for […] under control (DMSO) and test compound conditions. The viability of the slices over the course of culturing was confirmed by WST-1 assay of mitochondrial activity.
# PCLS from 5-7 idiopathic pulmonary fibrosis (IPF) lung tissue samples were cultured for seven days with one of: DMSO; Compound 5 at 200 nM; nintedanib at 75 nM; pirfenidone at 50 μM; a combination of Compound 5 at 200 nM and nintedanib at 75 nM; a combination of Compound 5 at 200 nM and pirfenidone at 50 μM; or an ALK5 inhibitor at 1 μM. […] FIG. 6D is a bar graph showing relative expression of COL1A1 in precision cut lung slices (PCLS) from idiopathic pulmonary fibrosis (IPF) lung tissue upon exposure to Compound 5, clinical standard of care compounds nintedanib (Nin) and pirfenidone (Pirf), and an ALK5 inhibitor, all versus DMSO control.
# PCLS from a single IPF lung tissue sample were cultured for seven days with Compound 5 at concentrations of 200 pM, 2 nM, 60 nM, 200 nM, and 1 μM, along with 0.1% DMSO control and an ALK5 inhibitor at 1 μM. […] COL1A1 expression is also graphed for the PCLS in the presence of 0.1% DMSO control, and an ALK5 inhibitor at 1 μM.
# [4] = system: Type I Collagen gene Col1a1 expression; test: Precision cut lung slices, acute bleomycin exposure, Col1a1 expression; format: cell-based, mice (C57BL/6); conditions: acute bleomycin PCLS, 3 days culture; integrin inhibitors at IC50 for TGF-beta activation, pan-αV and ALK5 inhibitors at 10× IC50
# Description: Mice (C57BL/6) were administered 3 U/kg of bleomycin (Teva Pharmaceuticals; North Wales, PA) on day 0 via oropharyngeal aspiration while under anesthesia. On day 14, precision cut lung slices were obtained. Following euthanization, 2% low gelling temp agarose was injected into the mouse lungs via the trachea. […] The lobes were then subjected to precision slicing to obtain samples for culture using a microtome (Compresstome VF-300-OZ, Precisionary; Greenville, NC). Individual slices were distributed in a multiwell culture plate and cultured for 3 days under control (DMSO) and test compound conditions. The viability of the slices over the course of culturing was confirmed by WST-1 assay of mitochondrial activity.
# [5] = Dose-Dependent Target Engagement (FIG. 12, prior studies); format: in vivo, human
# Excerpt: (§1) FIG. 12 through FIG. 33 illustrate various details and results from the clinical trial. […] In FIG. 12, BAL refers to bronchoalveolar lavage; pSmad2/Smad2 refers to ratio of phosphorylated Smad2 to total Smad2; and QD refers to once daily. **** refers to p<0.0001.
# pSmad2/Smad2 = test: Alveolar (BAL) pSmad2/Smad2, change from baseline at 24 hours (FIG. 12, prior studies); format: in vivo, human; conditions: 80 mg and 160 mg, p<0.0001 at both doses
# Excerpt: as §1
# [6] = 12 weeks, 40/80/160 mg once daily
smiles,measurement,setting,value
"COCCN(CCCCc1ccc2c(n1)NCCC2)CC[C@H](Nc1ncnc2ccccc12)C(=O)O [Compound 5, (S)-4-((2-methoxyethyl) (4-(5,6,7,8-tetrahydro-1,8-naphthyridin-2-yl)butyl)amino)-2-(quinazolin-4-ylamino) butanoic acid]","lung Col1a1 expression, normalized to DMSO control slices",lung Col1a1 expression,decreased lung Col1a1 expression substantially
same,"Serum PRO-C6, change from baseline relative to placebo",[1],decreased; also recorded: reduced
same,tolerability,"[2]; 40 mg, 80 mg, 160 mg once daily, 12 weeks",well tolerated
same,increase in FVC relative to baseline,"[2]; 80 mg treatment group, 12 weeks",+24.6 mL
same,severity of most treatment emergent adverse events (TEAE),[2]; [6],mild or moderate
same,treatment related deaths or drug related serious adverse events (SAE),[2]; [6],No treatment related deaths or drug related serious adverse events
same,plasma concentrations vs dose,[2]; 40/80/160 mg once daily,generally dose proportional increases
same,patients who completed 12 weeks of treatment with no discontinuations due to adverse events,"[2]; 67 patients treated, 40/80/160 mg once daily",97%
same,serious adverse events,"[2]; administration of Compound 5 alone, patients",did not result in serious adverse events
same,serum biomarkers of collagen synthesis,"[2]; change from baseline at 4 and 12 weeks vs. placebo, FIG. 33",reduced
same,treatment-emergent adverse events (TEAEs),"[2]; combinations with nintedanib or with pirfenidone, patients",resulted in treatment-emergent adverse events
same,reduction in FVC decline over 12 weeks versus placebo,[2]; pooled Compound 5 groups,approximately 80%
same,circulating biomarkers integrin beta-6 (ITGB6) and Type III collagen synthesis neoepitope (PRO-C3) levels,"[2]; relative to the placebo group, FIG. 40",reduced
same,"LS Mean Change From Baseline in FVC at week 12, On SoC Subgroup (MMRM, ITT)","[3]; 40 mg (N=17), placebo −95.2 mL",-58.3 mL
same,"Proportion of Participants with FVCpp Decline ≥10%, ITT, FIG. 20","[3]; 40 mg (N=22), 12 weeks",18.2%
same,"LS Mean (SE) change from Baseline in FVC at Week 12, ITT, Not on SoC subgroup, FIG. 30",[3]; 40 mg (n=5),-43.5 mL
same,"Proportion of participants with Absolute FVCpp decline ≥10%, ITT, FIG. 31",[3]; 40 mg (n=22),9.1%
same,"Proportion of participants with Relative FVCpp decline ≥10%, ITT, FIG. 29",[3]; 40 mg (n=22),18.2%
same,"Proportion of Participants with FVCpp Decline ≥10%, ITT, FIG. 20","[3]; 80 mg (N=23), 12 weeks",8.7%
same,"LS Mean (SE) change from Baseline in FVC at Week 12, ITT, Not on SoC subgroup, FIG. 30",[3]; 80 mg (n=4),138.5 mL
same,"Proportion of participants with Absolute FVCpp decline ≥10%, ITT, FIG. 31",[3]; 80 mg (n=23),8.7%
same,"Proportion of participants with Relative FVCpp decline ≥10%, ITT, FIG. 29",[3]; 80 mg (n=23),8.7%
same,"LS Mean (SE) change from Baseline in FVC at Week 12, mITT, FIG. 27",[3]; 80 mg (n=23),22.8 mL
same,"Proportion of Participants with FVCpp Decline ≥10%, ITT, FIG. 20","[3]; 160 mg (N=22), 12 weeks",4.5%
same,"LS Mean (SE) change from Baseline in FVC at Week 12, ITT, Not on SoC subgroup, FIG. 30",[3]; 160 mg (n=3),26.4 mL
same,"Proportion of participants with Absolute FVCpp decline ≥10%, ITT, FIG. 31",[3]; 160 mg (n=22),4.5%
same,"Proportion of participants with Relative FVCpp decline ≥10%, ITT, FIG. 29",[3]; 160 mg (n=22),4.5%
same,"LS Mean (SE) change from Baseline in FVC at Week 12, mITT, FIG. 27",[3]; 160 mg (n=22),-28.7 mL
same,Participants with a ≥10% absolute decline in FVC over 24 weeks,[3]; 320 mg,no Compound 5-treated participants
same,"LS Mean (SE) change from Baseline in FVC at Week 12, ITT, Not on SoC subgroup, FIG. 30",[3]; 320 mg (n=4),19.8 mL
same,"Proportion of participants with Absolute FVCpp decline ≥10%, ITT, FIG. 31",[3]; 320 mg (n=21),0%
same,"Proportion of participants with Relative FVCpp decline ≥10%, ITT, FIG. 29",[3]; 320 mg (n=21),0%
same,"LS Mean (SE) change from Baseline in FVC at Week 12, mITT, FIG. 27",[3]; 320 mg (n=21),26.8 mL
same,Participants with a decline of ≥10% in percent predicted FVC (FVCpp),"[3]; 320 mg, 12 weeks",No participants
same,Reduction of the decline from baseline in FVCpp compared to placebo,"[3]; 320 mg, Week 24",68%
same,"Average decrease in FVC at 24 weeks, ITT, SoC subgroup, FIG. 35","[3]; 320 mg, patients on standard of care (pirfenidone or nintedanib), placebo 172.8 mL",35.0 mL
same,"Patients showing an improvement in FVC at 24 weeks, ITT, FIG. 36","[3]; 320 mg, placebo 0%",50%
same,"Average decrease in FVC at 24 weeks, ITT, FIG. 34","[3]; 320 mg, placebo 109.3 mL",35.9 mL
same,"Change in FVC percent predicted from baseline at Week 24, ITT, FIG. 37","[3]; 320 mg, placebo −[…]",−0.8%
same,Proportion of participants with FVCpp decline of ≥10%,"[3]; 40, 80, 160 mg, 12 weeks",dose-dependent reduction
same,"Change in FVC from Baseline to Week 12 (MMRM, ITT)","[3]; pooled Compound 5 groups 40-160 mg (n = 67), placebo −74.1 mL",-15.1 mL
same,Reduction in FVC decline over 12 weeks compared to placebo,[3]; pooled active groups 40-160 mg,80%
same,reduction of COL1A1 expression,"COL1A1 expression; human IPF PCLS (5-7 tissues), 7 days, Compound 5 at 200 nM alone",43%
same,"lung Col1a1 expression, normalized to DMSO control slices","COL1A1 expression; human IPF PCLS, 3 days, 3G9 ≥400 ng/mL, Compound 5 179 nM, ALK5 inhibitor 1 μM","substantial, statistically significant (p<0.01 vs vehicle) decrease"
same,"COL1A1 expression, dose response","COL1A1 expression; human IPF PCLS, 7 days, 200 pM to 1 μM",dose dependent reduction
same,reduction of COL1A1 expression,"COL1A1 expression; human IPF PCLS, 7 days, Compound 5 at 200 nM in combination with nintedanib at 75 nM",55%
same,reduction of COL1A1 expression,"COL1A1 expression; human IPF PCLS, 7 days, Compound 5 at 200 nM in combination with pirfenidone at 50 μM",49%
same,"Type I Collagen gene Col1a1 expression, normalized to DMSO control slices",[4],decreased Type I Collagen gene Col1a1 expression substantially
same,Target engagement,[5],dose dependent
same,"Alveolar pSmad2/Smad2, Percentage Change from Baseline at 24 Hours vs. placebo",pSmad2/Smad2,statistically significant
